From US10681909B2, “Herbicidal triazoles” (FMC Corporation, priority 2014, dated 2020)

Key:
[1] = tested on: ragweed; assay: Test A postemergence; format: in vivo, Ambrosia elatior; details: 0 to 100 scale (0 no effect, 100 complete control), approx. 10 d
How it was run: (§1)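 Visual injury score, 0 (no effect) to 100 (complete control), taken about 10 d after treatment against untreated greenhouse controls. Chemicals formulated in non-phytotoxic solvent plus surfactant; preemergence by directed soil spray onto sown loam/sand, postemergence onto one- to two-leaf plants.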

[2] = tested on: ryegrass, Italian; assay: Test A postemergence; format: in vivo, Lolium multiflorum; details: 0 to 100 scale (0 no effect, 100 complete control), approx. 10 d
How it was run: as §1

[3] = tested on: blackgrass; assay: Test A postemergence; format: in vivo, Alopecurus myosuroides; details: 0 to 100 scale (0 no effect, 100 complete control), approx. 10 d
How it was run: as §1

[4] = tested on: lambsquarters; assay: Test D preemergence; format: in vivo, Chenopodium album; details: for Plant response rating: Lambsquarters: scale 0 to 100
Excerpt: (§2) Seeds of plant species selected from bluegrass (annual bluegrass, Poa annua), blackgrass (Alopecurus myosuroides), canarygrass (Phalaris minor), chickweed (common chickweed, Stellaria media), galium (catchweed bedstraw, Galium aparine), bromegrass, down (downy bromegrass, Bromus tectorum), Russian thistle (Salsola kali), field poppy (Papaver rhoeas), field violet (Viola arvensis), foxtail, green (green foxtail, Setaria viridis), deadnettle (henbit deadnettle, Lamium amplexicaule), ryegrass, Ital. (Italian ryegrass, Lolium multiflorum), kochia (Kochia scoparia), lambsquarters (Chenopodium album), oilseed rape (Brassica napus), pigweed (Amaranthus retroflexus), chamomile (scentless chamomile, Matricaria inodora), speedwell (bird's-eye speedwell, Veronica persica), barley, spring (spring barley, Hordeum vulgare), wheat, spring (spring wheat, Triticum aestivum), buckwheat, wild (wild buckwheat, Polygonum convolvulus), wild mustard (Sinapis arvensis), oat, wild (wild oat, Avena fatua), radish, wild (wild radish, Raphanus raphanistrum), […]), barley, winter (winter barley, Hordeum vulgare), and wheat, winter (winter wheat, Triticum aestivum) were planted into a silt loam soil and treated preemergence with test chemicals formulated in a non-phytotoxic solvent mixture which included a surfactant. At the same time, these species were planted in pots containing Sunshine Redi-Earth® planting medium comprising spaghnum peat moss, vermiculite, starter nutrients and dolomitic limestone and treated with postemergence applications of the test chemicals formulated in the same manner. Plants ranged in height from 2 to 18 cm (1- to 4-leaf stage). Treated plants and controls were maintained in a controlled growth environment for 14 to 21 d after which time all species were compared to controls and visually evaluated. […] A dash (-) response means no test result.

[5] = tested on: speedwell; assay: Test D preemergence; format: in vivo, Veronica persica; details: for Plant response rating: Speedwell: scale 0 to 100
Excerpt: as §2

[6] = tested on: radish, wild; assay: Test D preemergence; format: in vivo, Raphanus raphanistrum; details: for Plant response rating: Radish, Wild: scale 0 to 100
Excerpt: as §2

[7] = tested on: blackgrass; assay: Test D postemergence; format: in vivo, Alopecurus myosuroides; details: scale 0 to 100
Excerpt: as §2

[8] = tested on: oilseed rape; assay: Test D postemergence; format: in vivo, Brassica napus; details: scale 0 to 100
Excerpt: as §2

[9] = tested on: pigweed; assay: Test D postemergence; format: in vivo, Amaranthus retroflexus; details: scale 0 to 100
Excerpt: as §2

[10] = tested on: chamomile; assay: Test D postemergence; format: in vivo, Matricaria inodora; details: scale 0 to 100
Excerpt: as §2

[11] = 16 g ai/ha, 0 is no effect, 100 is complete control

## CCOc1nc(-c2ccc(C(F)(F)F)cc2)nn1Cc1ccnc(C(F)(F)F)c1 [Compound 35, 4-[[5-ethoxy-3-[4-(trifluoromethyl)phenyl]-1H-1,2,4-triazole-1-yl]methyl]-2-(trifluoromethyl)pyridine]
[1]; 31 g ai/ha
  Plant response rating, Ragweed: 20
[1]; 125 g ai/ha
  Plant response rating, Ragweed: 60
[2]; 31 g ai/ha
  Plant response rating, Ryegrass, Italian: 30
[2]; 125 g ai/ha
  Plant response rating, Ryegrass, Italian: 60
[3]; 31 g ai/ha
  Plant response rating, Blackgrass: 30
[3]; 125 g ai/ha
  Plant response rating, Blackgrass: 50
[4]; [11]
  Plant response rating (0 to 100), Lambsquarters: 85
[4]; 62 g ai/ha
  Plant response rating: Lambsquarters: 95
[4]; 125 g ai/ha
  Plant response rating: Lambsquarters: 100
[5]; [11]
  Plant response rating (0 to 100), Speedwell: 100
[5]; 62 g ai/ha
  Plant response rating: Speedwell: 100
[5]; 125 g ai/ha
  Plant response rating: Speedwell: 100
[6]; [11]
  Plant response rating (0 to 100), Radish, Wild: 65
[6]; 62 g ai/ha
  Plant response rating: Radish, Wild: 85
[6]; 125 g ai/ha
  Plant response rating: Radish, Wild: 100
[7]; 16 g ai/ha
  Plant response rating: Blackgrass: 35
[7]; 31 g ai/ha
  Plant response rating: Blackgrass: 55
[7]; 62 g ai/ha
  Plant response rating: Blackgrass: 70
[7]; 125 g ai/ha
  Plant response rating: Blackgrass: 80
[8]; 16 g ai/ha
  Plant response rating: Oilseed Rape: 80
[8]; 31 g ai/ha
  Plant response rating: Oilseed Rape: 90
[8]; 62 g ai/ha
  Plant response rating: Oilseed Rape: 100
[8]; 125 g ai/ha
  Plant response rating: Oilseed Rape: 100
[9]; 16 g ai/ha
  Plant response rating: Pigweed: 100
[9]; 31 g ai/ha
  Plant response rating: Pigweed: 100
[9]; 62 g ai/ha
  Plant response rating: Pigweed: 100
[9]; 125 g ai/ha
  Plant response rating: Pigweed: 100
[10]; 16 g ai/ha
  Plant response rating: Chamomile: 70
[10]; 31 g ai/ha
  Plant response rating: Chamomile: 75
[10]; 62 g ai/ha
  Plant response rating: Chamomile: 95
[10]; 125 g ai/ha
  Plant response rating: Chamomile: 100
